Experimental data: article PMC5303205, “Comparative studies on the multi-component pharmacokinetics of Aristolochiae Fructus and honey-fried Aristolochiae Fructus extracts after oral administration in rats” (BMC Complementary and Alternative Medicine, 2017)
Where two headings read alike, the source gives them in different places.

Tests used:
[1] = Multi-component pharmacokinetics of AAs in rats after oral administration of AF and HAF extracts (HPLC-MS/MS of plasma); parameters: species or system Sprague–Dawley (SD) rats; conditions: Sprague-Dawley, rat, in vivo
Description: An aliquot (100 μl) of rat plasma was spiked with 10.0 μL IS, and vortexed with 300 μL acetic ether for 10 s before the supernatant was transferred into centrifuge tube. The extraction was repeated with 200 μL acetic ether. The combined organic layer was evaporated to dryness under a gentle stream of nitrogen at RT. The residue was resolved in 100 μL methanol and centrifuged at 15,800 × g for 10 min. The supernatant was used for HPLC-MS/MS analysis.
Chromatographic separation was performed by an Acquity C18 column (4.6 × 100 mm,3.5 μm) (Agilent Technologies, USA). The mobile phase was composed of water (containing 10 mM ammonium formate and formic acid, pH 3.0) (solvent A) and ACN (solvent B). The gradient profile of B was: 0–10 min, 35–38%; 10–11 min, 38– 60%; 11–17 min, 60–35%B; 17–18 min, 35%. The flow rate was kept at 0.5 mL/min. The column oven was set at 30 °C and the injection volume was 10 μL.
The mass spectrometer was operated in the positive ion electrospray mode with multiple reaction monitoring (MRM). The optimal MS parameters were set at the following parameters: a desolvation gas temperature of 450 °C, desolvation gas flow of 10 L/min, a nebulizer gas of 40 psi and a capillary voltage of 4000 V. The mass spectrometry conditions of AA I, AA II, AA C, AA D, 7-OH AA I and IS are summarized in Additional file 1: Table S1.
The rats were randomly divided into 6 groups (low, middle and high doses of AF and HAF; n = 6). After a week of acclimation, the animals were fasted for 12 h with free access to water. Then, AF and HAF extracts were administered to the rats. The extracts were suspended in 0.5% CMC–Na solution, and the oral doses (according to AA I in the extracts) were 3.0 mg/kg, 8.0 mg/kg and 15.0 mg/kg, respectively.
Blood samples were collected from the ocular vein using dried heparinized tubes at 0, 0.083, 0.17, 0.33, 0.50, 0.67, 0.83, 1, 2, 4, 6, 8, 10, 12 and 24 h from the start. The animals received fluid replacement (sterile isotonic saline) after every two samplings since the fifth collecting. The samples were then immediately centrifuged at 3100 × g for 10 min. The plasma obtained was frozen and stored at –20 °C until analysis.
All statistical analyses were performed using the SPSS 11.0 software (Chicago, USA). P values <0.05 were considered statistically significant. Pharmacokinetic analysis was performed using the proprietary DAS 3.0 software (Mathematical Pharmacology Professional Committee of China, Shanghai, China).
After the oral administration of AF and HAF extracts, rat plasma samples were prepared and analyzed as described above. Five main AAs can be detected in rat blood with the proposed HPLC-MS/MS method. The mean pharmacokinetic parameters of five AAs in AF and HAF are summarized in Tables 4, 5 and Additional files 5, 6, 7: Tables S4-S6. The maximum concentration (C max) was the experimentally-observed value. The other pharmacokinetic parameters of the five analytes were fitted by DAS 3.0 software.

[2] = Stability of AAs in rat plasma (QC samples, HPLC-MS/MS); assay type: in vitro ADME; conditions: n = 5; for Short-term stability (RSD/%): fresh rat plasma at room temperature for 24 h before sample preparation; for Post-preparation stability (RSD/%): prepared rat plasma samples at room temperature for 24 h; for Long-term stability (RSD/%): rat plasma stored at –20 °C for 14 days; for Freeze-thaw stability (RSD/%): rat plasma, three freeze-thaw cycles (–20 °C 24 h, thawed at room temperature)
Description: The QC samples were assayed under several different conditions to evaluate the stability of AAs in rat plasma. The freeze-thaw stability of the analyte was determined over three freeze-thaw cycles. In each freeze-thaw cycle, the samples were frozen and stored at –20 °C for 24 h, then thawed at room temperature. To evaluate the long-term stability of AAs, the plasma samples were stored at –20 °C for 14 days. For the short-term stability, fresh plasma samples were kept at room temperature for 24 h before the sample preparation. After keeping the samples at room temperature for 24 h, post-preparation stability was tested. Stability was evaluated by comparing the mean concentration of the stored samples with the mean concentration of those prepared freshly. The stability data were acceptable when the bias was within ±15% of the actual value.

[3] = 3 mg/kg, AF extract, low dose (3.0 mg/kg as AA I), analyte dose mg/kg: AA I 3.0, AA II 0.21, AA C 1.42, AA D 1.60, 7-OH AA I 2.33, n = 6
[4] = 3 mg/kg, HAF extract, low dose (3.0 mg/kg as AA I), analyte dose mg/kg: AA I 3.0, AA II 0.26, AA C 1.53, AA D 1.51, 7-OH AA I 2.48, n = 6
[5] = 8 mg/kg, AF extract, mid dose (8.0 mg/kg as AA I), analyte dose mg/kg: AA I 8.0, AA II 0.56, AA C 3.78, AA D 4.26, 7-OH AA I 6.22, n = 6
[6] = 8 mg/kg, HAF extract, mid dose (8.0 mg/kg as AA I), analyte dose mg/kg: AA I 8.0, AA II 0.69, AA C 4.09, AA D 4.03, 7-OH AA I 6.62, n = 6
[7] = 15 mg/kg, AF extract, high dose (15.0 mg/kg as AA I), analyte dose mg/kg: AA I 15.0, AA II 1.05, AA C 7.09, AA D 8.00, 7-OH AA I 11.66, n = 6
[8] = 15 mg/kg, HAF extract, high dose (15.0 mg/kg as AA I), analyte dose mg/kg: AA I 15.0, AA II 1.29, AA C 7.66, AA D 7.56, 7-OH AA I 12.41, n = 6
[9] = high QC conc ng/mL: AA I 1830, AA II 3200, AA C 2980, AA D 3680, 7-OH AA I 3280
[10] = low QC conc ng/mL: AA I 1.83, AA II 8.00, AA C 186.3, AA D 36.8, 7-OH AA I 82.0
[11] = middle QC conc ng/mL: AA I 457.5, AA II 400, AA C 372.5, AA D 460, 7-OH AA I 410

## COc1cccc2c1cc([N+](=O)[O-])c1c(C(=O)O)cc3c(c12)OCO3 [AA I]
[1]; [3]
  AUC(0-inf): 6080 ± 1260 ng·h/mL
  Cmax: 1700 ± 571 ng/mL
  Tmax: 0.5 ± 0.09 h
[1]; 3 mg/kg, AF extract, low dose (3.0 mg/kg as AA I), analyte dose mg/kg: AA I 3.0, AA II 0.21, AA C 1.42, AA D 1.60, 7-OH AA I 2.33, n = 6, read-out: CLz/F (converted)
  CL/F: 9.5 mL/min/kg
[1]; 3 mg/kg, AF extract, low dose (3.0 mg/kg as AA I), analyte dose mg/kg: AA I 3.0, AA II 0.21, AA C 1.42, AA D 1.60, 7-OH AA I 2.33, n = 6, read-out: Vz/F
  Vd/F: 2.85 ± 0.15 L/kg
[1]; 3 mg/kg, AF extract, low dose (3.0 mg/kg as AA I), analyte dose mg/kg: AA I 3.0, AA II 0.21, AA C 1.42, AA D 1.60, 7-OH AA I 2.33, n = 6, read-out: t 1/2z (converted)
  half-life: 3.5 ± 0.5 h
[1]; [4]
  AUC(0-inf): 5230 ± 896 ng·h/mL
  Cmax: 1070 ± 223 ng/mL
  Tmax: 0.39 ± 0.08 h
[1]; 3 mg/kg, HAF extract, low dose (3.0 mg/kg as AA I), analyte dose mg/kg: AA I 3.0, AA II 0.26, AA C 1.53, AA D 1.51, 7-OH AA I 2.48, n = 6, read-out: CLz/F (converted)
  CL/F: 9.83 mL/min/kg
[1]; 3 mg/kg, HAF extract, low dose (3.0 mg/kg as AA I), analyte dose mg/kg: AA I 3.0, AA II 0.26, AA C 1.53, AA D 1.51, 7-OH AA I 2.48, n = 6, read-out: Vz/F
  Vd/F: 2.75 ± 0.24 L/kg
[1]; 3 mg/kg, HAF extract, low dose (3.0 mg/kg as AA I), analyte dose mg/kg: AA I 3.0, AA II 0.26, AA C 1.53, AA D 1.51, 7-OH AA I 2.48, n = 6, read-out: t 1/2z (converted)
  half-life: 3.22 ± 0.46 h
[1]; [5]
  AUC(0-inf): 12800 ± 1860 ng·h/mL
  Cmax: 3820 ± 450 ng/mL
  Tmax: 0.56 ± 0.09 h
[1]; 8 mg/kg, AF extract, mid dose (8.0 mg/kg as AA I), analyte dose mg/kg: AA I 8.0, AA II 0.56, AA C 3.78, AA D 4.26, 7-OH AA I 6.22, n = 6, read-out: CLz/F (converted)
  CL/F: 10.8 mL/min/kg
[1]; 8 mg/kg, AF extract, mid dose (8.0 mg/kg as AA I), analyte dose mg/kg: AA I 8.0, AA II 0.56, AA C 3.78, AA D 4.26, 7-OH AA I 6.22, n = 6, read-out: Vz/F
  Vd/F: 5.4 ± 0.48 L/kg
[1]; 8 mg/kg, AF extract, mid dose (8.0 mg/kg as AA I), analyte dose mg/kg: AA I 8.0, AA II 0.56, AA C 3.78, AA D 4.26, 7-OH AA I 6.22, n = 6, read-out: t 1/2z (converted)
  half-life: 5.58 ± 0.65 h
[1]; [6]
  AUC(0-inf): 8990 ± 1780 ng·h/mL
  Cmax: 2000 ± 313 ng/mL
  Tmax: 0.42 ± 0.08 h
[1]; 8 mg/kg, HAF extract, mid dose (8.0 mg/kg as AA I), analyte dose mg/kg: AA I 8.0, AA II 0.69, AA C 4.09, AA D 4.03, 7-OH AA I 6.62, n = 6, read-out: CLz/F (converted)
  CL/F: 11.3 mL/min/kg
[1]; 8 mg/kg, HAF extract, mid dose (8.0 mg/kg as AA I), analyte dose mg/kg: AA I 8.0, AA II 0.69, AA C 4.09, AA D 4.03, 7-OH AA I 6.62, n = 6, read-out: Vz/F
  Vd/F: 4.58 ± 0.37 L/kg
[1]; 8 mg/kg, HAF extract, mid dose (8.0 mg/kg as AA I), analyte dose mg/kg: AA I 8.0, AA II 0.69, AA C 4.09, AA D 4.03, 7-OH AA I 6.62, n = 6, read-out: t 1/2z (converted)
  half-life: 4.72 ± 0.52 h
[1]; [7]
  AUC(0-inf): 26800 ± 3260 ng·h/mL
  Cmax: 5890 ± 426 ng/mL
  Tmax: 0.69 ± 0.1 h
[1]; 15 mg/kg, AF extract, high dose (15.0 mg/kg as AA I), analyte dose mg/kg: AA I 15.0, AA II 1.05, AA C 7.09, AA D 8.00, 7-OH AA I 11.66, n = 6, read-out: CLz/F (converted)
  CL/F: 14.5 mL/min/kg
[1]; 15 mg/kg, AF extract, high dose (15.0 mg/kg as AA I), analyte dose mg/kg: AA I 15.0, AA II 1.05, AA C 7.09, AA D 8.00, 7-OH AA I 11.66, n = 6, read-out: Vz/F
  Vd/F: 7.13 ± 0.57 L/kg
[1]; 15 mg/kg, AF extract, high dose (15.0 mg/kg as AA I), analyte dose mg/kg: AA I 15.0, AA II 1.05, AA C 7.09, AA D 8.00, 7-OH AA I 11.66, n = 6, read-out: t 1/2z (converted)
  half-life: 5.46 ± 0.53 h
[1]; [8]
  AUC(0-inf): 11800 ± 1770 ng·h/mL
  Cmax: 3470 ± 352 ng/mL
  Tmax: 0.47 ± 0.08 h
[1]; 15 mg/kg, HAF extract, high dose (15.0 mg/kg as AA I), analyte dose mg/kg: AA I 15.0, AA II 1.29, AA C 7.66, AA D 7.56, 7-OH AA I 12.41, n = 6, read-out: CLz/F (converted)
  CL/F: 12 mL/min/kg
[1]; 15 mg/kg, HAF extract, high dose (15.0 mg/kg as AA I), analyte dose mg/kg: AA I 15.0, AA II 1.29, AA C 7.66, AA D 7.56, 7-OH AA I 12.41, n = 6, read-out: Vz/F
  Vd/F: 5.53 ± 0.52 L/kg
[1]; 15 mg/kg, HAF extract, high dose (15.0 mg/kg as AA I), analyte dose mg/kg: AA I 15.0, AA II 1.29, AA C 7.66, AA D 7.56, 7-OH AA I 12.41, n = 6, read-out: t 1/2z (converted)
  half-life: 5.32 ± 0.54 h
[2]; [9]
  Short-term stability (RSD/%): 6.5%
  Post-preparation stability (RSD/%): 4.5%
  Long-term stability (RSD/%): 7.6%
  Freeze-thaw stability (RSD/%): 12.9%
[2]; [10]
  Short-term stability (RSD/%): 0.58%
  Post-preparation stability (RSD/%): 0.65%
  Long-term stability (RSD/%): 0.28%
  Freeze-thaw stability (RSD/%): 1.1%
[2]; [11]
  Short-term stability (RSD/%): 8.7%
  Post-preparation stability (RSD/%): 2.0%
  Long-term stability (RSD/%): 6.9%
  Freeze-thaw stability (RSD/%): 10.3%
